The text below walks through data of ChEMBL document CHEMBL1857833, “Screening and optimization of specific chemical series against human African Trypanosomiasis (HAT)”.

Series [1] has as its system Trypanosoma brucei. As to the kind of experiment: DNDI: Inhibition of Human African Trypanosomiasis, Cross 22, in vitro. In kind it is functional, organism-based.
Series [2] can be described thus: DNDI: Cytotoxicity against L929 mouse fibroblasts, 72 hour. In kind it is toxicity, cell-based. To be noted: mouse, L929 mouse fibroblasts.
For series [3], the system named is Trypanosoma brucei. The series can be described thus: DNDI: Inhibition of Human African Trypanosomiasis, SBRI 427, in vitro. In kind it is functional, organism-based.
Series [4] can be described thus: DNDI: Cytotoxicity against L929 mouse fibroblasts, CYTO-SP, 24 hour. Conditions: mouse, L929 mouse fibroblasts. In kind it is toxicity, cell-based.
The nature of series [5]: DNDI: Lipophilicity measured in Chromatographic hydrophobicity index (CHI) assay, pH 7.4. In kind it is physicochemical. To be noted: buffer.
Series [6] is described as follows: DNDI: Solubility in phosphate buffered saline at pH7.4 measured by nephelometry at room temperature (NEPH-RT). In kind it is physicochemical. Conditions: pH 7.4.
Another series deals with Leishmania donovani. As to the kind of experiment: DNDI: Inhibition of formation of Leishmania donovani (strain MHOM/ET/67/L82) axenic amastigotes, in vitro. In kind it is functional, organism-based.
Series [7] has as its system Trypanosoma brucei rhodesiense. As to the kind of experiment: DNDI: Inhibition of Human African Trypanosomiasis (HAT), STIB 900, in vitro. In kind it is functional, organism-based.
The nature of series [8]: DNDI: Cytotoxicity against L-6 rat myoblasts from skeletal muscle cells. In kind it is toxicity, cell-based, L6. Conditions: L-6 rat skeletal muscle myoblasts.
The subject of another series is Trypanosoma cruzi. The series can be described thus: DNDI: Inhibition of Chagas Disease parasite Trypanosoma cruzi (Tulahuen LacZ, Clone C4), in vitro. In kind it is functional, organism-based.
A further series deals with Plasmodium falciparum. As to the kind of experiment: DNDI: Inhibition of the malaria parasite Plasmodium falciparum, in vitro. In kind it is functional, organism-based. Conditions: K1.
For series [9] the following is noted: mouse, microsomes, 1 µM.
Description: DNDI: in vitro intrinsic clearance in mouse liver microsomes at a concentration of 1uM
A further series can be described thus: in vitro. Conditions: mouse, liver microsomes, t (1 / 2).
The test system of series [10] is Trypanosoma brucei. As to the kind of experiment: DNDI: Mean survival time in days (MSD) of mice after intraperitoneal injection of Human African Trypanosomiasis (HAT), EATRO 110, in vivo at 20 mg/kg/day for 4 days. In kind it is functional, Mus musculus.
The mark [11] stands for this setting: Trypanosoma brucei, SBRI 427, read-out: IC50.

The structures appear in SMILES notation. ≈ marks a conversion by molar mass, not a printed value. Where “and” joins values, the source holds several entries; their conditions need not be identical. Equal entries are not always repeated. Some results are limits rather than exact numbers.

Description for in vitro: DNDI: half life in mouse liver microsomes at a concentration of 1uM

As a reminder, the IC50 is the concentration that inhibits the measured activity by half. The term chromatographic logD denotes a lipophilicity value derived from retention on a column. A higher chromatographic logD goes with a more lipophilic compound. The kinetic solubility is solubility judged after dilution from a stock solution rather than from solid. Turning to `CC(C)(C)c1ccc(-c2nc(CNC3CCCCCC3)co2)cc1`, the IC50 in the series on Trypanosoma brucei [1] is 0.44 µg/mL (≈ 1.35 µM); in the series with Trypanosoma brucei [3], 0.3 µg/mL and 0.49 µg/mL; in the series with Trypanosoma brucei [3] (setting [11]), 0.39 µg/mL (≈ 1.19 µM). Besides, in series [2], the concentration for half-maximal inhibition (IC50) at 72 h was less than 3.13 µg/mL. In series [4], this compound had an IC50 at 24 h greater than 50 µg/mL. The same compound showed a chromatographic logD in series [5] of 5.41. In addition, the solubility (kinetic) in series [6] was determined as 25 µM (≈ 8.16 µg/mL).

On to `CCCCCC(C)NCc1coc(-c2ccc(Br)cc2)n1` (stereo unspecified), for which the half-maximal inhibitory concentration (IC50) in the series on Trypanosoma brucei [1] was 2.01 µg/mL (≈ 5.72 µM); with Leishmania donovani it was 20.4 µg/mL (≈ 58 µM); in [7], 0.532 µg/mL (≈ 1.51 µM); in series [8], 12.7 µg/mL (≈ 36.1 µM); with Trypanosoma cruzi it was 8.2 µg/mL (≈ 23.3 µM); in the series on Trypanosoma brucei [3], 1.34 µg/mL and 1.55 µg/mL. The IC50 in the series on Trypanosoma brucei [3] (setting [11]) came out at 0.9 µg/mL (≈ 2.56 µM); in the series on Plasmodium falciparum, 2.41 µg/mL (≈ 6.86 µM). Besides, half-maximal inhibition in [2] (IC50 at 72 h) required 4.47 µg/mL (≈ 12.7 µM). The IC50 at 24 h in series [4] was greater than 50 µg/mL.

The compound `CCCCCC(C)NCc1coc(-c2ccc(Cl)c(Cl)c2)n1` (stereo unspecified) returned a half-inhibitory concentration (IC50) at 72 h in series [2] of 4.75 µg/mL (≈ 13.9 µM). Also, the IC50 turned out to be 16 µg/mL (≈ 46.9 µM) in the series with Leishmania donovani; 0.487 µg/mL (≈ 1.43 µM) in [7]; 13.3 µg/mL (≈ 39 µM) in [8]; 22.2 µg/mL (≈ 65 µM) in the series with Trypanosoma cruzi; 3.68 µg/mL (≈ 10.8 µM) with Trypanosoma brucei [3] (setting [11]); 4.3 µg/mL (≈ 12.6 µM) with Plasmodium falciparum. The half-maximal inhibitory concentration (IC50) at 24 h in [4] came to 17 µg/mL (≈ 49.8 µM).

Turning to `O/N=C1/CCCCCN1`, the IC50 at 72 h in series [2] is greater than 10 µg/mL. Further, the IC50 in the series with Leishmania donovani was greater than 90 µg/mL; in series [7], greater than 90 µg/mL; in [8], greater than 90 µg/mL; with Trypanosoma cruzi, greater than 30 µg/mL; with Trypanosoma brucei [3] (setting [11]), greater than 5 µg/mL; in the series with Plasmodium falciparum, greater than 5 µg/mL. In series [4], the concentration for half-maximal inhibition (IC50) at 24 h is greater than 50 µg/mL.

Usually half-life stands for how long it takes for the measured level to halve. In turn, `CCCCCC(C)NCc1coc(-c2ccc(OC(C)CC)cc2)n1` (stereo unspecified) showed a CLint in vitro in [9] of 3 µL/min/mg. This compound displayed a half-inhibitory concentration (IC50) at 72 h in series [2] of 1.55 µg/mL (≈ 4.5 µM). In the series “in vitro”, this compound had a half-life at 1 µM of 257 min. For the same compound, the IC50 in the series on Trypanosoma brucei [3] (setting [11]) was 0.68 µg/mL (≈ 1.97 µM). In series [5], this compound registered a chromatographic logD greater than 5.2. Besides, the MSD in the series with Trypanosoma brucei [10] came out at 4 days. Moreover, the solubility (kinetic) in [6] stood at 3 µM (≈ 1.03 µg/mL).

On to `CCOc1ccc(-c2nc(CNC3CCCCCC3)co2)cc1`, for which the concentration for half-maximal inhibition (IC50) with Trypanosoma brucei [1] was 1.12 µg/mL (≈ 3.56 µM); with Trypanosoma brucei [3] it was 1.36 µg/mL and 0.96 µg/mL; in the series with Trypanosoma brucei [3] (setting [11]), 1.46 µg/mL (≈ 4.64 µM). The same compound returned a CLint in vitro in series [9] of 22 µL/min/mg. The half-maximal inhibitory concentration (IC50) at 72 h in series [2] was less than 3.13 µg/mL. Also, the half-life at 1 µM in the series “in vitro” was determined as 39 min. In series [4], this compound returned an IC50 at 24 h of 25.1 µg/mL (≈ 80 µM).

The compound `Cc1ccc(CNC(CCc2ccccc2)c2nc(-c3ccccc3)c(N3CCCCC3)o2)cc1` (stereo unspecified) had a half-maximal inhibitory concentration (IC50) at 72 h in series [2] greater than 10 µg/mL. Also, in the series on Trypanosoma brucei [3] (setting [11]), the 50% inhibitory concentration (IC50) is greater than 5 µg/mL. Moreover, in the series with Trypanosoma brucei [10], the MSD is 4 days.

As for `CCCCCC(C)NCc1coc(-c2ccc(OC3CCCC3)cc2)n1` (stereo unspecified), in series [9], the CLint in vitro stood at 13 µL/min/mg. The 50% inhibitory concentration (IC50) at 72 h in [2] stood at 1.38 µg/mL (≈ 3.87 µM). The compound also came in with a half-life at 1 µM in “in vitro” of 67 min. Moreover, in the series with Trypanosoma brucei [3] (setting [11]), the IC50 is 0.73 µg/mL (≈ 2.05 µM). The same compound returned a chromatographic logD in series [5] greater than 5.2. In the series on Trypanosoma brucei [10], this compound registered an MSD of 4 days. Moreover, the solubility (kinetic) in series [6] came to 6 µM (≈ 2.14 µg/mL).

Consider `CCCCCC(C)NCc1coc(-c2ccc(OCC(C)C)cc2)n1` (stereo unspecified), for which, in series [9], the CLint in vitro is 9 µL/min/mg. In series [2], this compound registered an IC50 at 72 h of 1.48 µg/mL (≈ 4.3 µM). This compound returned a half-life at 1 µM in “in vitro” of 94 min. The IC50 in the series on Trypanosoma brucei [3] (setting [11]) stood at 0.5 µg/mL (≈ 1.45 µM). In [5], the chromatographic logD was greater than 5.2. In the series on Trypanosoma brucei [10], the MSD was found to be 4 days. In addition, in series [6], the solubility (kinetic) turned out to be 3 µM (≈ 1.03 µg/mL).

Take `O/N=C(\Nc1cccc(F)c1)c1cccnc1Oc1c(F)cccc1F`: the IC50 at 72 h in series [2] is greater than 10 µg/mL. In addition, the half-inhibitory concentration (IC50) in the series with Trypanosoma brucei [3] (setting [11]) is greater than 5 µg/mL. This compound also showed an MSD with Trypanosoma brucei [10] of 4 days.

In the case of `CCCCOc1ccc(-c2nc(CNC[C@@H]3CC[C@H]4C[C@@H]3C4(C)C)co2)cc1`, the half-maximal inhibitory concentration (IC50) with Trypanosoma brucei [1] was 1.03 µg/mL (≈ 2.69 µM); in the series on Trypanosoma brucei [3] it was 1.54 µg/mL and 0.83 µg/mL and 0.57 µg/mL. In series [9], this compound yielded a CLint in vitro of 95 µL/min/mg. This compound also yielded an IC50 at 72 h in series [2] of less than 3.13 µg/mL. In addition, the half-life at 1 µM in “in vitro” is 9 min. This compound also returned a half-maximal inhibitory concentration (IC50) at 24 h in series [4] of 16.4 µg/mL (≈ 42.9 µM).

Take `Cc1ccc(CNC(CC(C)C)c2nc(Cc3ccccc3)c(N3CCOCC3)o2)cc1` (stereo unspecified): in series [9], the CLint in vitro worked out at 155 µL/min/mg. Also, the IC50 at 72 h in series [2] was greater than 10 µg/mL. This compound returned a half-life at 1 µM in the series “in vitro” of 5 min. In addition, the IC50 in the series with Trypanosoma brucei [3] (setting [11]) is 1.64 µg/mL (≈ 3.78 µM). The same compound gave an MSD with Trypanosoma brucei [10] of 4 days.

Turning to `CCc1cccc(N/C(=N/O)c2ccccc2-c2ccccc2)c1`, the 50% inhibitory concentration (IC50) at 72 h in [2] was found to be 2.4 µg/mL (≈ 7.59 µM). In addition, the IC50 in the series with Leishmania donovani amounted to 4.96 µg/mL (≈ 15.7 µM); in series [7], 20.9 µg/mL (≈ 66.1 µM); in series [8] it was 9.67 µg/mL (≈ 30.6 µM); with Trypanosoma cruzi, 5.38 µg/mL (≈ 17 µM); in the series on Trypanosoma brucei [3] (setting [11]), 1.23 µg/mL (≈ 3.89 µM); with Plasmodium falciparum, 4.43 µg/mL (≈ 14 µM). In series [4], this compound displayed a 50% inhibitory concentration (IC50) at 24 h of 25.3 µg/mL (≈ 80 µM).
